The record followed here is patent publication US20230398153A1, “A METHOD FOR EFFICIENT MICROGLIA REPLACEMENT” (The Board of Trustees of the Leland Stanford Junior …, priority 2020, published 2023).

This test concerns brain myeloid cells (CD45+CD11b+). The test is described as follows: HSCT followed by PLX5622 treatment: donor (GFP+) myeloid chimerism in the brain by flow cytometry. The test is classed as in vivo, mouse. From the text:
Microglia depletion after HSCT results in near complete replacement of microglia with bone marrow-derived cells throughout the entire brain. We next tested whether CSF1R inhibition after HSCT enhanced microglia replacement. We therefore performed conventional HSCT with GFP-labeled fresh bone marrow cells. After 28 days, we treated the experimental group with PLX5622 for 10 days and the control group received no drug (FIG. 2A). After another 10 days (7 weeks post transplant) we analyzed the brains and consistently found over 90% of all brain myeloid cells to be GFP^+ by flow cytometry (FIG. 2B, C). […] The transplanted CDMCs had homogeneously populated the entire brain (FIG. 2E). Importantly, this high chimerism was stable and CDMCs remained incorporated for at least 6 months after transplantation (FIG. 2C, 9E).
PLX5622 was provided by Plexxikon Inc. and incorporated to AIN-76A standard chow by Research Diets Inc. at 1200 mg/kg.
Unless otherwise noted, we used female mice at age of 8-12 weeks for both recipients and donors. WT mice were pre-treated with PLX5622 diet between day-21 and day −1 (21 days) and/or busulfan between day-6 and −2 day (5 days). For busulfan pre-treatment, mice received five intraperitoneal (IP) injections of busulfan (sigma, B1 170000) at 25 mg/kg body weight per day. On day 0, bone marrow cells (BMCs) were isolated from tibias and femurs of UBC-GFP mice. Isolated BMCs were resuspended in 1×red blood cell lysis buffer (e-bioscience, 00-4300-54) and incubated for 20 min at room temperature. BMCs were passed through 70 μm cell strainer, washed by applying 10 ml of ice cold PBS and then resuspended in fresh PBS. BMCs (5×10^6) in 200 ul PBS were injected into the retro-orbital sinus of the pre-conditioned recipients. On day 28, the recipient mice were treated with PLX5622 or control diet for 10 days. For tamoxifen injection, tamoxifen (sigma T5648) in corn oil (sigma, C8267) was provided by IP injection to the recipient mice at 200 mg/kg at the indicated time points after bone marrow transplantation.
Microglia cells were isolated from adult mouse brains as described (Shibuya et al., 2014). Anesthetized mice (100 mg/kg of ketamin and 10 mg/kg of xylazine, i.p.) were perfused through the left ventricle with ice-cold PBS without Ca^2+ and Mg^2+. Brains were removed and cut into two pieces along the midline. One hemisphere was immediately transferred to 4% paraformaldehyde for fixation. The other hemi-sphere was minced with a surgical knife, and then transferred to ice-cold HBSS without Ca^2+ and Mg^2+. Minced hemi-brains were centrifuged at 300×g for 2 min at room temperature and then enzymatically digested at 37° C. for 35 min by using Neural Tissue Dissociation Kit (Miltenyi Biotec, 130-092-628) according to the manufacturer's protocol. The cell suspension was passed through a 70 µm cell strainer and washed by applying 10 ml of HBSS with Ca^2+ and Mg^2+ to the strainer. The cell suspension was centrifuged at 300×g for 10 min at room temperature, re-suspended in 30% Percoll (GE Healthcare Lifesciences, 17089102), and then centrifuged at 700×g for 10 min at 4° C. The supernatant containing the myelin was removed and the pellet was washed with 10 ml of HBSS with Ca^2+ and Mg^2+. The resulting pellet was resuspended in FACS buffer and subjected to antibody staining for flow cytometry. Microglia/CDMCs were identified using anti-CD45 and anti-CD11b antibodies.
The following FACS antibodies were used in this study. CD11b (clone M1/70, BioLegend), CD45 (Clone 30-F11, BD biosciences), F4/80 (clone BM8, biolegend), CCR2 (clone SA203G11, biolegend), gp49A/B (clone H1.1), CD115 (CSF1R) (clone AFS98, biolegend), CD117 (c-kit) (clone 2B8, BD biosciences), sca-1 (clone D7, biolegend), cd127 (IL7Ra)(clone SB/199, biolegend), CD16/CD32 (FcR Ill/II) (clone 93, biolegend), CX3CR1 (clone K0124E1, biolegend), cd135 (Flk-2,)(clone A2F10) CD34 (clone561, biolegend), and Ly6C (clone RB6-8C5). […]
(A flow cytometer gives signals particle by particle.)

Each structure is given as a SMILES string.

For the compound `COc1ncc(F)cc1CNc1ccc(Cc2c[nH]c3ncc(C)cc23)c(F)n1` [PLX5622], the “engraftment of CDMCs into the brain” value (PLX5622 between days 14 and 24 after HSCT, flow cytometry on D34) is “comparably robust and efficient engraftment”. For the setting “PLX5622 pre-treatment before HSCT (busulfan+PLX5622 group), 14 days post IV injection”, the “fraction of GFP+ cells among brain myeloid cells” value is recorded as “only a marginal increase”. The “expression of microglia-specific marker TMEM119 in CDMCs” value (PLX5622 treatment following HSCT, cortex, d83) is “induced expression of the microglia-specific marker TMEM119 in CDMCs”. The “duration CDMCs remained incorporated (stable high chimerism)” value (after transplantation, PLX5622 10 days from D28) is recorded as “at least 6 months”. For the same compound, the “brain myeloid cells GFP+ by flow cytometry” value (busulfan HSCT, PLX5622 10 days from D28, analysed after another 10 days (7 weeks post transplant)) was “over 90%”. Further, the “CDMCs (GFP+) and microglia (GFP-) numbers during PLX5622 treatment” value (flow cytometry during treatment after HSCT) is listed as “both cell populations were diminished to similar degrees”.
